# Source: patent publication US8772307B2, “Substituted spiro compounds and their use for producing pain-relief medicaments” (Gruenenthal GmbH, priority 2005, dated 2014)
# Tests used:
# [1] = target: T1, rat-species vanilloid receptor 1 (VR1/TRPV1) (Rattus norvegicus, UniProt O35433); assay: Functional testing on vanilloid receptor 1 (VR1/TRPV1): FLIPR Ca2+ inflow assay in rat dorsal root ganglia cells (% activation / % inhibition vs capsaicin); type: cell-based; conditions: for inhibition at 10 µM: inhibition compared to 10 μM CP (capsaicin); for activation at 10 µM: stimulation compared to 10 μM CP (capsaicin)
# T1 construct: endogenous in cells; host or cells: primary cells dissociated from rat dorsal root ganglia (DRG)
# T1 sequence (O35433 whole entry): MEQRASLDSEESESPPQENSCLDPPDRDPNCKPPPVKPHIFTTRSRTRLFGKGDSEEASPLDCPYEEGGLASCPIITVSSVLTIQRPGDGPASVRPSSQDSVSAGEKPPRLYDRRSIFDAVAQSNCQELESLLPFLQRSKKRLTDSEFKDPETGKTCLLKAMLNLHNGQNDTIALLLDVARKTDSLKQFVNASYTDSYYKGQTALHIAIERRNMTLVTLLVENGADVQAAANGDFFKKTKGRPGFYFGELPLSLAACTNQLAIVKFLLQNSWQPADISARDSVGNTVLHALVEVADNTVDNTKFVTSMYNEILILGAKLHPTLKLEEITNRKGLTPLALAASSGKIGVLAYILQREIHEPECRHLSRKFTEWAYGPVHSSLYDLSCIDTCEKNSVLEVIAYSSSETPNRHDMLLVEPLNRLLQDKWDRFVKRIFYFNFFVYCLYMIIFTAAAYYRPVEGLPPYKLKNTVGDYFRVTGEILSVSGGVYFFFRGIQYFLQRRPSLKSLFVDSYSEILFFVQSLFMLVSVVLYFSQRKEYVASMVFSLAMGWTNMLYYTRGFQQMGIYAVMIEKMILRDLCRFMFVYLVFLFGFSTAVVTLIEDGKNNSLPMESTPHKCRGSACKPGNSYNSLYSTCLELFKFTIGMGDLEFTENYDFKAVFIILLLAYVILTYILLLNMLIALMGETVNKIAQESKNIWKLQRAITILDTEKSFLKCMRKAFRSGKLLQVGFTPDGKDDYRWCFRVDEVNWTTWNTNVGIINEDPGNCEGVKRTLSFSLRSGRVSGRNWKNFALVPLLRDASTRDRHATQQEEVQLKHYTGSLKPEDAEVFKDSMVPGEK
# Procedure, shortened: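 Rat dorsal root ganglion cells, dissociated with collagenase and trypsin, were plated at 3×10^5/mL on laminin-coated plates in NGF-containing HAMS F12 and cultured 2-3 days at 37° C. Ca2+ inflow read by Fluo-4 fluorescence on FLIPR; test compounds at 10 μM referenced to 10 μM capsaicin.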
# vanilloid receptor (VR1) = target: T2, vanilloid receptor (VR1) (Homo sapiens, UniProt Q8NER1); assay: Functional testing on vanilloid receptor (VR1): FLIPR Ca2+ inflow assay in CHO K1 cells stably transfected with the VR1 gene; type: cell-based; conditions: for inhibition at 10 µM: CHO-K1, inhibition compared to 10 μM CP (capsaicin); for activation at 10 µM: CHO-K1, stimulation compared to 10 μM CP (capsaicin)
# T2 construct: expressed in transfected cells; host or cells: CHO K1 cells (ECACC), stably transfected
# T2 sequence (Q8NER1 whole entry): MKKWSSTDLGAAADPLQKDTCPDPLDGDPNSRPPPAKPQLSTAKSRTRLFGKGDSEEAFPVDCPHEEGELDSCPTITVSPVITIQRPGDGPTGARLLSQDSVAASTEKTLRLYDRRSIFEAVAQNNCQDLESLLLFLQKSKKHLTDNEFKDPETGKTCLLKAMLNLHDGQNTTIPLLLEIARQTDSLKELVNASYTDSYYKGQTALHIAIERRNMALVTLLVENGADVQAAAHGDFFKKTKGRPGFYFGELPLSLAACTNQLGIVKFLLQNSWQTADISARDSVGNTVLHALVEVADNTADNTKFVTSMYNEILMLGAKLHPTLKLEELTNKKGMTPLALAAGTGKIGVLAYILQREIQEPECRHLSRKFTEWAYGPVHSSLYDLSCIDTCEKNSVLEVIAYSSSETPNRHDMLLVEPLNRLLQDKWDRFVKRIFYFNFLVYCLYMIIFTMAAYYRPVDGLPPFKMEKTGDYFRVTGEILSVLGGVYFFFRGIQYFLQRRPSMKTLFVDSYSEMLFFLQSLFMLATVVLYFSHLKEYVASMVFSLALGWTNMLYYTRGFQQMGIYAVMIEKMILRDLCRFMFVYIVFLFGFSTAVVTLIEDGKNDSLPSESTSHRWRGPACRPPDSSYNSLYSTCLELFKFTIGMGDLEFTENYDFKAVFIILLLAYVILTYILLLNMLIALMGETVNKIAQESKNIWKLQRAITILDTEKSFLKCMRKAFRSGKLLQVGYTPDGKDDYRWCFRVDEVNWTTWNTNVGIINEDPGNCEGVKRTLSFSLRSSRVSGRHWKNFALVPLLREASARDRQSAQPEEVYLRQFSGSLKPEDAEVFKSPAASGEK
# Procedure, shortened: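 CHO K1 cells stably expressing VR1, loaded with Fluo-4 (2 μM, 30 min, 37° C); peak Ca²⁺ fluorescence read on FLIPR. Compound (10 μM) added first, agonism as % of 10 μM capsaicin signal; after 5 min, 100 nM capsaicin added, % inhibition calculated relative to maximal inhibition with 10 μM capsaicin.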
# [2] = capsaicin (CAP) stimulus, average
SMILES,melting point [°C],inhibition at 10 µM [1] [%],activation at 10 µM [1] [%],inhibition at 10 µM (vanilloid receptor (VR1)) [%],activation at 10 µM (vanilloid receptor (VR1)) [%],"IC50 [1, 2] [µM]",IC50 (vanilloid receptor (VR1); [2]) [µM]
"CC(C)(C)c1ccc2[nH]c(N3CCC4(CC3)CC(c3ccccc3)=NO4)nc2c1 [Compound 379, 8-(5-tert-butyl-1H-benzimidazol-2-yl)-3-phenyl-1-oxa-2,8-diazaspiro[4.5]dec-2-ene]",230 to 236,,,,,,
"Cc1ccc(C2=NOC3(CCN(C(=O)Nc4ccc(Cl)c(C(F)(F)F)c4)CC3)C2)cc1 [Compound 236, 3-p-tolyl-1-oxa-2,8-diazaspiro[4.5]dec-2-ene-8-carboxylic acid-(4-chloro-3-trifluoromethylphenyl)amide]",,45.1,-0.47,-10.3,-0.28,,
"COc1ccccc1NC(=O)N1CCC2(CC1)CC(c1ccc(C(C)(C)C)cc1)=NO2 [Compound 201, 3-(4-tert-butylphenyl)-1-oxa-2,8-diazaspiro[4.5]dec-2-ene-8-carboxylic acid-(2-methoxyphenyl)amide]",,54.2,-0.43,-0.7,8.56,,
"CC(C)(C)c1ccc(C(/C=C/c2ccccc2)=C/C(=O)N2CCC3(CC2)CC(c2ccccc2)=NO3)cc1 [Compound 337, (2E,4E)-3-(4-tert-butylphenyl)-5-phenyl-1-(3-phenyl-1-oxa-2,8-diazaspiro[4.5]dec-2-en-8-yl)penta-2,4-dien-1-one]",,95,1,16,-1,,
"Cc1ccc(C2=NOC3(CCN(C(=O)Nc4ccc(C(C)(C)C)cc4)CC3)C2)cc1 [Compound 144, 3-p-tolyl-1-oxa-2,8-diazaspiro[4.5]dec-2-ene-8-carboxylic acid-(4-tert-butylphenyl)amide]",,94.5,-0.43,-16.6,-0.18,,
"CC(C)(C)c1ccc(NC(=O)N2CCC3(CC2)CC(c2cccc(F)c2)=NO3)cc1 [Compound 351, N-(4-tert-butylphenyl)-3-(3-fluorophenyl)-1-oxa-2,8-diazaspiro[4.5]dec-2-ene-8-carboxamide]",,101,6,83,3,,
"CC(C)(C)c1ccc(NC(=O)N2CCC3(CC2)CC(c2ccccc2F)=NO3)cc1 [Compound 352, N-(4-tert-butylphenyl)-3-(2-fluorophenyl)-1-oxa-2,8-diazaspiro[4.5]dec-2-ene-8-carboxamide]",,95,7,-3,2,,
"O=C(Nc1cccc(Br)c1)N1CCC2(CC1)CC(c1ccccc1)=NO2 [Compound 193, 3-phenyl-1-oxa-2,8-diazaspiro[4.5]dec-2-ene-8-carboxylic acid-(3-bromophenyl)amide]",,43.6,-0.17,-2.64,0.11,,
"COc1cccc(C2=NOC3(CCN(C(=O)Nc4ccc(C(F)(F)F)cc4)CC3)C2)c1 [Compound 210, 3-(3-methoxyphenyl)-1-oxa-2,8-diazaspiro[4.5]dec-2-ene-8-carboxylic acid-(4-trifluoromethylphenyl)amide]",,98,0.22,7.12,-0.21,,
"COc1cccc(NC(=O)N2CCC3(CC2)CC(c2ccccc2)=NO3)c1 [Compound 205, 3-phenyl-1-oxa-2,8-diazaspiro[4.5]dec-2-ene-8-carboxylic acid-(3-methoxyphenyl)amide]",,39.9,0.15,-23.9,0.33,,
"Cc1ccc(C2=NOC3(CCN(C(=S)NC4CCCC4)CC3)C2)cc1 [Compound 290, 3-p-tolyl-1-oxa-2,8-diazaspiro[4.5]dec-2-ene-8-thiocarboxylic acid cyclopentylamide]",,48.4,-0.47,-7.84,-0.28,,
"COc1cccc(C2=NOC3(CCN(C(=O)Nc4ccc(C(C)(C)C)cc4)CC3)C2)c1 [Compound 140, 3-(3-methoxyphenyl)-1-oxa-2,8-diazaspiro[4.5]dec-2-ene-8-carboxylic acid-(4-tert-butylphenyl)amide]",,99.2,1.4,9.67,9.37,,

# Results, then the compound that gave them:
melting point [°C],inhibition at 10 µM [1] [%],activation at 10 µM [1] [%],inhibition at 10 µM (vanilloid receptor (VR1)) [%],activation at 10 µM (vanilloid receptor (VR1)) [%],"IC50 [1, 2] [µM]",IC50 (vanilloid receptor (VR1); [2]) [µM],SMILES
,55.5,-0.73,0.17,-0.04,,,"CC(C)(C)c1ccc(C2=NOC3(CCN(C(=O)Nc4ccc(I)cc4)CC3)C2)cc1 [Compound 45, 3-(4-tert-butylphenyl)-1-oxa-2,8-diazaspiro[4.5]dec-2-ene-8-carboxylic acid-(4-iodophenyl)amide]"
,101,9,29,8,,,"CC(C)(C)c1ccc(NC(=O)N2CCC3(CC2)CC(c2cccc(Cl)c2)=NO3)cc1 [Compound 333, N-(4-tert-butylphenyl)-3-(3-chlorophenyl)-1-oxa-2,8-diazaspiro[4.5]dec-2-ene-8-carboxamide]"
,62,0,3,0,1.36,4.38,"O=C(/C=C/c1cccc(Br)c1)N1CCC2(CC1)CC(c1ccccc1)=NO2 [Compound 346, (E)-3-(3-bromophenyl)-1-(3-phenyl-1-oxa-2,8-diazaspiro[4.5]dec-2-en-8-yl)prop-2-en-1-one]"
,58.8,-0.47,-2.79,-0.35,,,"Cc1ccc(C2=NOC3(CCN(C(=O)Nc4ccc(C(C)C)cc4)CC3)C2)cc1 [Compound 81, 3-p-tolyl-1-oxa-2,8-diazaspiro[4.5]dec-2-ene-8-carboxylic acid-(4-isopropylphenyl)amide]"
,44,-1,19,0,,,"COc1cccc(C2=NOC3(CCN(C(=O)/C=C/c4ccc(C(F)(F)F)nc4)CC3)C2)c1 [Compound 362, (E)-1-(3-(3-methoxyphenyl)-1-oxa-2,8-diazaspiro[4.5]dec-2-en-8-yl)-3-(6-(trifluoromethyl)pyridin-3-yl)prop-2-en-1-one]"
